Data on six compounds can be found in US6946472B2, “Polycyclic compounds exhibiting anti-tumor activities” (Hoffman-La Roche Inc., priority 2002, dated 2005).

Molecules are shown by their SMILES.

The subject of this assay is HCT116 cell line (colorectal cancer). As to the kind of experiment: Anti-proliferative activity assay (WST-8). The following applies: Homo sapiens, HCT-116, 96 h; in vitro growth of HCT116, 4 days incubation, WST-8, concentration yielding 50% OD of control growth. Format: cell-based. Here is the method: A single suspension of tumor cells was inoculated to the serially diluted 96-well microtestplate. Then the testplate was incubated in the 5% CO2 ambience at 37° C. for 4 days (2-3×10^3 cells/well). The degree of cell growth in a monolayer was measured by using WST-8 (Dojindo, Japan). IC50 values of the polycyclic compounds directed against tumor cells were calculated as the concentration of drug yielding 50% OD of the control growth.
The anti-tumor activity of polycyclic compounds of the formula [I] against in vitro growth of HCT116 cell line (colorectal cancer) is summarized in Table 1.
Compound `CN(CCCN(C)CCNc1nc2ccccc2c2c1C(=O)c1ccncc1-2)CCNc1nc2ccccc2c2c1C(=O)c1cnccc1-2` [Example 15, 6-{2-[methyl-(3-{methyl-[2-(7-oxo-7H-5,10-diaza-benzo[c]fluoren-6-ylamino)-ethyl]-amino}-propyl)-amino]-ethylamino}-5,9-diaza-benzo[c]fluoren-7-one] yielded an IC50 of 0.13 nM.

Compound `COc1ccc2c3c(c(NCCN(C)CCCN(C)CCNc4nc5ccccc5c5c4C(=O)c4cnccc4-5)nc2c1)C(=O)c1cnccc1-3` [Example 16, 3-methoxy-6-{2-[methyl-(3-{methyl-[2-(7-oxo-7H-5,9-diaza-benzo[c]fluoren-6-ylamino)-ethyl]-amino}-propyl)-amino]-ethylamino}-5,9-diaza-benzo[c]fluoren-7-one] displayed an IC50 of 0.08 nM.

Take `CN(C)CCNc1nc2cc(O)ccc2c2c1C(=O)c1ccccc1-2` [Reference compound, 6-(2-dimethylamino-ethylamino)-3-hydroxy-7H-indeno[2,1-c]quinolin-7-one, reference compound]: the IC50 is 12 nM.

With `CN(CCCN(C)CCNc1nc2cc(Cl)ccc2c2c1C(=O)c1cnccc1-2)CCNc1nc2cc(Cl)ccc2c2c1C(=O)c1cnccc1-2` [Example 6, 3-chloro-6-{2-[(3-{[2-(3-chloro-7-oxo-7H-5,9-diaza-benzo[c]fluoren-6-ylamino)-ethyl]-methyl-amino}-propyl)-methyl-amino]-ethylamino}-5,9-diaza-benzo[c]fluoren-7-one], 0.02 nM corresponded to half-maximal inhibition (IC50). Against the preceding compound, the IC50 is about 600-fold lower.

Compound `CN(CCCN(C)CCNc1nc2ccccc2c2c1C(=O)c1cnccc1-2)CCNc1nc2ccccc2c2c1C(=O)c1cnccc1-2` [Example 5, 6-{2-[methyl-(3-{methyl-[2-(7-oxo-7H-5,9-diaza-benzo[c]fluoren-6-ylamino)-ethyl]-amino}-propyl)-amino]-ethylamino}-5,9-diaza-benzo[c]fluoren-7-one] came in with an IC50 of 0.64 nM.

`CN(CCCN(C)CCNc1nc2ccccc2c2c1C(=O)c1ccncc1-2)CCNc1nc2ccccc2c2c1C(=O)c1ccncc1-2` [Example 10, 6-{2-[methyl-(3-{methyl-[2-(7-oxo-7H-5,10-diaza-benzo[c]fluoren-6-ylamino)-ethyl]-amino}-propyl)-amino]-ethylamino}-5,10-diaza-benzo[c]fluoren-7-one] showed an IC50 of 0.3 nM. This IC50 lies about 2.1-fold lower than the previous one.
